Results published in PubChem BioAssay (NCI).
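Results reflect a 48-hour exposure of cells in 96-well plates to compound at five concentrations. TGI is the concentration that stops growth completely.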

Legend:
Experiment in all cases: NCI tumour cell line growth inhibition, 48 h
[1] = test system: HCC-2998 colon
[2] = test system: SF-539 CNS
[3] = test system: A498 renal
[4] = test system: RPMI-8226 leukemia
[5] = test system: EKVX NSCLC
[6] = test system: SK-MEL-28 melanoma
[7] = test system: HOP-92 NSCLC
[8] = test system: OVCAR-5 ovarian
[9] = test system: SF-268 CNS
[10] = test system: UO-31 renal
[11] = test system: DLD-1 colon
[12] = test system: M19-MEL melanoma
[13] = test system: DMS 114 small cell lung
[14] = test system: COLO 205 colon
[15] = test system: MOLT-4 leukemia
[16] = test system: SNB-78 CNS
[17] = test system: SNB-19 CNS
[18] = test system: LOX IMVI melanoma
[19] = test system: U251 CNS
[20] = test system: HL-60(TB) leukemia
[21] = test system: K-562 leukemia
[22] = test system: A549 NSCLC
[23] = test system: SR leukemia
[24] = test system: TK-10 renal
[25] = test system: SK-MEL-2 melanoma
[26] = test system: M14 melanoma
[27] = test system: SK-MEL-5 melanoma
[28] = test system: CAKI-1 renal
[29] = test system: SW-620 colon
[30] = test system: OVCAR-8 ovarian
[31] = test system: NCI-H23 lung
[32] = test system: DMS 273 small cell lung
[33] = test system: SF-295 CNS
[34] = test system: KM12 colon
[35] = test system: NCI-H460 lung
[36] = test system: NCI-H522 lung
[37] = test system: OVCAR-4 ovarian
[38] = test system: HCT-116 colon
[39] = test system: OVCAR-3 ovarian
[40] = test system: ACHN renal
[41] = test system: IGROV1 ovarian
[42] = test system: MALME-3M melanoma
[43] = test system: SNB-75 CNS
[44] = test system: KM20L2 colon
[45] = test system: HOP-62 NSCLC
[46] = test system: HOP-18 NSCLC
[47] = test system: SK-OV-3 ovarian
[48] = test system: UACC-257 melanoma
[49] = test system: NCI-H226 lung
[50] = test system: RXF 393 renal
[51] = test system: UACC-62 melanoma
[52] = test system: CCRF-CEM leukemia
[53] = test system: 786-0 renal
[54] = test system: HT29 colon
[55] = test system: T-47D breast
[56] = test system: MDA-MB-231 breast
[57] = test system: HS 578T breast
[58] = test system: MDA-N
[59] = test system: BT-549 breast
[60] = test system: MDA-MB-435
[61] = test system: MCF7 breast
[62] = test system: DU-145 prostate
[63] = test system: SN12C renal
[64] = test system: NCI/ADR-RES ovarian
[65] = test system: PC-3 prostate
[66] = test system: HCT-15 colon

## CC(C)[Si](OCC1CC(C[C@H]2CC(C[C@H]3C[C@@H](CO[Si](C(C)C)(C(C)C)C(C)C)OC(C)(C)O3)OC(C)(C)O2)OC(C)(C)O1)(C(C)C)C(C)C (stereo partly specified)
[1]
  TGI: > 100 µM
[2]
  TGI: > 100 µM
[3]
  TGI: > 100 µM
[4]
  TGI: > 100 µM
[5]
  TGI: > 100 µM
[6]
  TGI: > 100 µM
[7]
  TGI: > 100 µM
[8]
  TGI: > 100 µM
[9]
  TGI: > 100 µM
[10]
  TGI: > 100 µM
[11]
  TGI: > 100 µM
[12]
  TGI: > 100 µM
[13]
  TGI: > 100 µM
[14]
  TGI: > 100 µM
[15]
  TGI: > 100 µM
[16]
  TGI: > 100 µM
[17]
  TGI: > 100 µM
[18]
  TGI: > 100 µM
[19]
  TGI: > 100 µM
[20]
  TGI: > 100 µM
[21]
  TGI: > 100 µM
[22]
  TGI: > 100 µM
[23]
  TGI: > 100 µM
[24]
  TGI: > 100 µM
[25]
  TGI: > 100 µM
[26]
  TGI: > 100 µM
[27]
  TGI: > 100 µM
[28]
  TGI: > 100 µM
[29]
  TGI: > 100 µM
[30]
  TGI: > 100 µM
[31]
  TGI: > 100 µM
[32]
  TGI: > 100 µM
[33]
  TGI: > 100 µM
[34]
  TGI: > 100 µM
[35]
  TGI: > 100 µM
[36]
  TGI: > 100 µM
[37]
  TGI: > 100 µM
[38]
  TGI: > 100 µM
[39]
  TGI: > 100 µM
[40]
  TGI: > 100 µM
[41]
  TGI: > 100 µM
[42]
  TGI: > 100 µM
[43]
  TGI: > 100 µM
[44]
  TGI: > 100 µM
[45]
  TGI: > 100 µM
[46]
  TGI: > 100 µM
[47]
  TGI: > 100 µM
[48]
  TGI: > 100 µM
[49]
  TGI: > 100 µM
[50]
  TGI: > 100 µM
[51]
  TGI: > 100 µM
[52]
  TGI: > 100 µM
[53]
  TGI: > 100 µM
[54]
  TGI: > 100 µM

## COc1ccc(C(=O)Cn2c(C(C)=O)nc3ccccc32)cc1
[1]
  TGI: > 100 µM
[2]
  TGI: > 100 µM
[3]
  TGI: > 100 µM
[4]
  TGI: > 100 µM
[5]
  TGI: > 100 µM
[6]
  TGI: > 100 µM
[7]
  TGI: > 100 µM
[8]
  TGI: > 100 µM
[55]
  TGI: > 78.7 µM
[56]
  TGI: > 100 µM
[9]
  TGI: > 100 µM
[10]
  TGI: > 57.3 µM
[57]
  TGI: > 100 µM
[14]
  TGI: 52.4 µM
[15]
  TGI: > 100 µM
[17]
  TGI: > 100 µM
[18]
  TGI: > 46.4 µM
[19]
  TGI: 31.8 µM
[20]
  TGI: > 43.8 µM
[21]
  TGI: > 100 µM
[22]
  TGI: > 100 µM
[58]
  TGI: > 100 µM
[23]
  TGI: > 100 µM
[24]
  TGI: > 100 µM
[59]
  TGI: > 100 µM
[25]
  TGI: > 100 µM
[26]
  TGI: > 100 µM
[60]
  TGI: > 100 µM
[27]
  TGI: > 100 µM
[28]
  TGI: > 100 µM
[29]
  TGI: > 100 µM
[30]
  TGI: > 44.5 µM
[61]
  TGI: > 100 µM
[62]
  TGI: > 100 µM
[63]
  TGI: > 100 µM
[64]
  TGI: > 100 µM
[31]
  TGI: > 100 µM
[33]
  TGI: 80.6 µM
[34]
  TGI: > 100 µM
[35]
  TGI: > 61.7 µM
[36]
  TGI: > 100 µM
[37]
  TGI: > 100 µM
[38]
  TGI: > 100 µM
[39]
  TGI: > 100 µM
[40]
  TGI: > 100 µM
[41]
  TGI: > 100 µM
[42]
  TGI: > 100 µM
[43]
  TGI: > 100 µM
[65]
  TGI: > 100 µM
[45]
  TGI: 65.7 µM
[47]
  TGI: > 100 µM
[48]
  TGI: > 100 µM
[49]
  TGI: > 100 µM
[50]
  TGI: > 100 µM
[51]
  TGI: > 92.9 µM
[66]
  TGI: > 100 µM
[52]
  TGI: > 100 µM
[53]
  TGI: 33.7 µM
[54]
  TGI: > 100 µM

## Cc1cc(C)nc(NS(=O)(=O)c2ccc(NNC(=O)c3cccc4c(NNc5ccc(S(=O)(=O)Nc6nc(C)cc(C)n6)cc5)c5ccccc5nc34)cc2)n1
[1]
  TGI: 37.7 µM
[2]
  TGI: 43.6 µM
[4]
  TGI: 64.9 µM
[5]
  TGI: 40.5 µM
[6]
  TGI: 48.7 µM
[7]
  TGI: 70.3 µM
[8]
  TGI: 40.3 µM
[55]
  TGI: 78.9 µM
[56]
  TGI: 44.9 µM
[9]
  TGI: 61 µM
[10]
  TGI: 51.1 µM
[57]
  TGI: 71.9 µM
[14]
  TGI: 46.3 µM
[15]
  TGI: 66.8 µM
[17]
  TGI: 72.7 µM
[18]
  TGI: 31.3 µM
[19]
  TGI: 46.6 µM
[20]
  TGI: 47 µM
[21]
  TGI: 52.4 µM
[22]
  TGI: 96.8 µM
[58]
  TGI: 43.1 µM
[23]
  TGI: 53.1 µM
[24]
  TGI: 67.7 µM
[59]
  TGI: 71.4 µM
[25]
  TGI: 57.5 µM
[26]
  TGI: 32.6 µM
[60]
  TGI: 39.4 µM
[27]
  TGI: 33 µM
[28]
  TGI: 41.8 µM
[29]
  TGI: 48.3 µM
[30]
  TGI: 43.4 µM
[61]
  TGI: 62.4 µM
[62]
  TGI: 36.8 µM
[63]
  TGI: > 100 µM
[64]
  TGI: > 100 µM
[31]
  TGI: 51.6 µM
[33]
  TGI: 88.1 µM
[34]
  TGI: 35.6 µM
[35]
  TGI: 51.1 µM
[36]
  TGI: 40.8 µM
[37]
  TGI: 68 µM
[38]
  TGI: 48.2 µM
[39]
  TGI: 66.5 µM
[40]
  TGI: 33.3 µM
[41]
  TGI: 57.1 µM
[42]
  TGI: 51.8 µM
[43]
  TGI: 52.3 µM
[65]
  TGI: 51 µM
[45]
  TGI: 85.9 µM
[47]
  TGI: 87.1 µM
[48]
  TGI: 71.3 µM
[49]
  TGI: 55.9 µM
[50]
  TGI: 48.7 µM
[51]
  TGI: 58.7 µM
[66]
  TGI: 36.1 µM
[52]
  TGI: 51.2 µM
[53]
  TGI: 54.1 µM
[54]
  TGI: 37.8 µM
